Measured values taken from patent US9463189B2 (BPV Holdings, LLC, priority 2007, dated 2016).
Structures can show the parent of a compound that is named as a salt.

What was measured:
Format in all cases: in vivo, C57B1/6J mice
NASH mice [1] = assay: Macrophage infiltration in liver, F4/80 staining
Description: NASH-induced inflammation and lipid accumulation in the liver promotes infiltration of monocytes from peripheral circulation into the liver. Hepatic inflammatory status of NASH mice was assessed by histological assessment of the presence of macrophage specific markers including F4/80 in liver sections. An F4/80 antibody stain used is to quantitatively differentiate monocyte/macrophage cell population in the blood and tissue: infiltrating monocytes are F4/80 bright whereas liver macrophages (Kupffer cells) are F4/80 dull. There was a striking increase in the number of F4/80 bright macrophages in the liver of the NASH mice (data not shown) that is attenuated by treatment with Compound 2 (42 days, 5 mg/Kg/day) treated NASH (FIG. 4).
F4/80 stain was used to illustrate macrophage infiltration in liver tissue. The following protocol was followed: • 1. Check the number of sections per slide; if there is 1 section then use 2 slides from the same group per staining run (1 for ctrl IgG and 1 for primary antibody of interest). If there are 2 sections per slide then use 1 slide per group per run and separate the sections using a PAP pen. • 2. De-paraffin slides through 3×5-minutes Propar clearant, and re-hydrate with 5-minutes each in decreased concentrations of reagent alcohol to water (100%, 95%, 75%, water). • 3. Use Citrate buffer pH 6.0 for HIER (heat-induced epitope retrieval). […]

NASH mice [2] = assay: Hepatic steatosis / lipid accumulation in liver, Oil Red O stain image analysis
Source text: (§1) Early Steatosis Model: C57B1/6J mice (22-39 days old) mice were used for the study. Mice were fed normal chow food (Lab Diet, 5P14Prolab Animal Diet, PMI Nutritional International, Brentwood, Mo., Cat# RMH 2500) or 58% high fat diet (HFD, 58 kcal % fat and corn starch with purple dye, Research Diets, New Brunswick, N.J., Cat# D12330 equivalent to Western diet) for 120-150 days. […] This group is referred to as the HFD-low body group in FIG. 1A (insulin & liver fat accumulation˜normal). On the other hand, one fifth of the mice gained 60-70% higher body weight (compared to normal chow fed mice) while on the same HFD diet (NASH group, very high insulin and liver fat) further shown in FIG. 1A. The majority of the mice (three fifths) gained body weight as expected on the HFD (30-40% higher than the normal chow fed mice) and is referred to as the DIO group (normal to moderately high insulin and liver fat accumulation) as shown in FIG. 1A. Control animals (n=5) representative of the HFD-low body weight and the NASH groups were sacrificed prior to starting the rest of the animals on treatment with the Compound 2 (5 or 10 mg/Kg/day). Liver, white adipose and muscle from the sacrificed mice were collected for histology performed on the liver tissue.
The development of NASH was further confirmed using histological analyses of liver. The sections were analyzed for 1) hepatic steatosis 2) necroinflammation, and 3) fibrosis. Histological analyses of hepatic steatosis was assessed by quantitative image analysis of Oil Red O stain in liver sections and defined as the percentage of Oil Red ‘O’ positive area relative to the total image area.
(§2) Following 120-150 days on the HFD, mice in the NASH group were treated with Compound 2 (5 or 10 mg/Kg/day) or vehicle (10% Encapsin) for 42 days. Fasting and post prandial (PP) blood draws were taken at the beginning of the study (compound treatment) to identify and confirm the NASH group and during the study to evaluate various pharmacological responses. Since the NASH mice are severely hyperinsulinemic compared to NC mice, glucose tolerance testing (GTT, measures peripheral insulin resistance) was performed to evaluate the effect of Compound 2 on improvement of peripheral insulin sensitivity. Treatment was administered for 42 days (separate experiments). Body weight and food intake was measured throughout the study.
Staining was prepared with Oil Red ‘O’ that stains fat deposits red on frozen tissues where positive staining indicates lipid accumulation. Trichrome staining was used to illuminate fibrosis; collagen deposits appear blue and positive staining indicates fibrosis.

NASH mice [3] = assay: Serum transaminases AST and ALT in HFD-induced NASH mice (clinical chemistry panel)
Source text: as §1, §2
Tail blood was collected into EDTA capillary tubes (Becton, Dickinson and Company, Franklin Lakes, N.J., Cat #365973). Upon sacrifice, blood was collected by cardiac puncture using a 1 mL Syringe Tuberculin Slip Tip (Becton, Dickinson & Company, Cat #309602) and B-D25G 5/8 needle (Becton Dickinson, Franklin Lakes, N.J., Cat #305122) and saved into Microtainer brand tube with EDTA (Becton, Dickinson and Company, Cat #365973). The blood was spun for 8 minutes at 8500 rpm at 4° C. (Eppendorf, Centrifuge 5415R, New York, N.Y.). Plasma was collected and stored at −20° C. for further analyses
80 μL EDTA plasma was diluted with 80 μL Dulbecco's phosphate buffered saline (Gibco, Grand Island, N.Y., Cat #14040-133) and analyzed in Olympus AU600 (Olympus, London, UK) for the following endpoints. The lower and upper limit ranges were according to the assay values provided by the JAS Diagnostics, INC (Miami, Fla.). • Glucose (LL 94-116, UL 297-353 mg/dL, Cat # JAS GLU2-125) • Triglycerides (LL 46-102, UL 128-168 mg/dL, Cat # TRI2-125) • ALT/GPT (LL 10-34, UL 64-114 U/L, Cat # JAS ALT2-125) • AST/GOT (LL 18-46, UL 121-187 U/L, Cat # JAS AST2-125) • Multi-Chemistry calibrator (Albumin: 3.9 g/dL, Cholesterol: 212 mg/dL, • Creatinine: 4.4 mg/dL, Glucose: 220 mg/dL, Triglycerides: 116 mg/dL, Cat # JAS CAL1-5) • Multi-Chemistry control level 1 (Range: See above for each constituent, Cat # JAS CON1-5) • Multi-Chemistry control level 2 (Range: See above for each constituent, Cat # JAS CON2-5)

## C[C@@H]1CN(Cc2ccc(OC(F)(F)F)cc2)C[C@H](C)N1S(=O)(=O)c1cccc2c1C[C@@H](C(=O)O)C2 [Compound 2, (S)-4-[cis-2,6-Dimethyl-4-(4-trifluoromethoxy-benzyl)-piperazine-1-sulfonyl]-indan-2-carboxylic acid tosylate]
NASH mice [1]; 42 days, 5 mg/Kg/day, FIG. 4
  number of F4/80 bright macrophages in the liver of the NASH mice: attenuated
NASH mice [1]; oral administration, NASH mice, summary
  macrophage infiltration in the liver: attenuated macrophage infiltration
NASH mice [2]; 42 days of 10 mg/kg/day
  fat accumulation in the livers of treated vs. non-treated NASH mice: reduced fat accumulation
NASH mice [2]; HFD + Compound 2, 10 mg/kg, 42 days, liver sections, HFD + Vehicle 47.7% +/− 5.5
  Percent Field Area, Lipid (stained oil deposits): 16.0% +/− 7.6
NASH mice [2]; HFD + Compound 2, 10 mg/kg, 42 days, liver sections, HFD + Vehicle 91% +/− 2.4
  Percent Field Area, Cytoplasm: 38.6% +/− 2.3
NASH mice [2]; oral administration, NASH mice, p<0.03 vs. vehicle
  reduced lipid accumulation in the liver: 32%
NASH mice [3]; 42 days of 5 mg/kg/day, p<0.02
  reduction in AST compared to the vehicle group: 43%
NASH mice [3]; 42 days of 5 mg/kg/day, p<0.05
  reduction in ALT compared to the vehicle group: 43%
NASH mice [3]; 42 days of 5 mg/kg/day, vehicle 108±15, in U/L
  ALT serum level, treated group: 62±13
NASH mice [3]; 42 days of 5 mg/kg/day, vehicle 201±23, in U/L
  AST serum level, treated group: 115±19
NASH mice [3]; oral administration, summary
  levels of serum transaminases AST and ALT: reduced levels
